In patent US20090118285A1, “USE OF KCNQ-OPENERS FOR TREATING OR REDUCING THE SYMPTOMS OF SCHIZOPHRENIA” (H. Lundbeck A/S, priority 2006, published 2009):

Tests used:
[1] = Motility inhibition (sedative properties) without d-amphetamine, rat; details: Wistar, in vivo, sc
[2] = Inhibition of baseline motility in vehicle-pretreated, vehicle-challenged mice; details: NMRI, mouse, in vivo
[3] = test system: amphetamine-induced hyperactivity in the rat; test: Amphetamine challenge: d-amphetamine induced hyperactivity in rats; type: in vivo; details: test substance s.c. 30 min before d-amphetamine sulphate 0.5 mg/kg, motility 2 hours, read-out: Amphetamine antagonism ED50 ± std. dev.
Source text: D-amphetamine administration to rodents stimulates an increase in locomotor activity via mesolimbic dopamine receptors in the nucleus accumbens. While psychostimulant psychosis may not model all forms of schizophrenia, it may have applicability to paranoid schizophrenia and non-schizophrenic psychotic disorders (Krystal et al. pp. 214-224 in Neurobiology of Mental Illness ISBN 0-19-511265-2). It is believed that inhibition of the amphetamine-induced increase in locomotor activity is a reliable method for the evaluation of compounds with an antipsychotic potential (Ögren et al., European J. Pharmacol. 1984, 102, 459-464). In the following experiment, it was tested if the inhibition of spontaneous DA neurons in the mesolimbic circuit that was assessed above, could be translated into behavioral antipsychotic endpoint.
Subjects. Male Wistar rats (Taconic, Denmark) weighing 170-240 g are used. The animals were housed under a 12-hr light/dark cycle under controlled conditions for regular in-door temperature (21±2° C.) and humidity (55±5%) with food and tap water available ad libitum. Eight rats were used at each dose level and in the parallel control group receiving the vehicle to the test compound plus d-amphetamine and the group receiving vehicle injections only.

[4] = test system: DA levels in the nucleus accumbens; test: Microdialysis: DA levels in the nucleus accumbens of freely moving rats; type: in vivo, rat; details: no amphetamine provocation, data not shown
[5] = test system: sensitised behavioural response to amphetamine in mice; test: Amphetamine sensitisation: sensitised behavioural response to amphetamine in mice; type: in vivo, mouse; details: amphetamine-pretreated mice, compound s.c. 30 min before D-amphetamine challenge 1.25 mg/kg s.c., 30 min test; for ED50: Mus musculus, read-out: Inhibition of amphetamine sensitised response. ED50 (±S.D.)
Method: Inhibition of the behavioral response to an acute amphetamine challenge in sensitised animals is proposed as a model for evaluating the antipsychotic or antimanic potential of compounds.
Subjects. Male NMRI mice (Charles River) weighing approx. 35 g are used. The animals were housed 6 mice pr cage in a 12-hr light/dark cycle under controlled conditions for regular in-door temperature (21±2° C.) and humidity (55±5%) with food and tap water available ad libitum. 12 mice are used pr experimental group.
Administration of compounds.

[6] = test system: conditioned avoidance response in rats; test: Conditioned avoidance response in rats; type: in vivo, rat; details: for % inhibition of avoidance. Relative to baseline.: rats; for Escape failures (effect on motor performance): rat, in vivo
Source text: In the conditioned avoidance response (CAR) model, rats are trained to respond to a stimulus within a fixed time by moving from one place to another in order to avoid a footshock. Antipsychotics selectively suppress the avoidance response within a certain dose-range without suppressing escape behavior elicited by the appearance of the footshock. The CAR model is considered to be a predictive and reliable animal model that is sensitive to compounds with an antipsychotic potential.
Subjects. Male Wistar rats (Taconic, Denmark) weighing 150 g at the beginning of the study are used. The rats are housed ii pairs and maintained on a 12 h light/dark cycle (lights on 06:00). The animals are fed once daily (approx. 6 pellets/rat) in order to keep the rats at 80% of their free-feeding weight. Water is available ad libitum. Temperature (21±1° C.) and relative humidity (55±5%) are automatically controlled.
Experimental procedure. Conditioned avoidance testing is conducted using four automated shuttle-boxes (ENV-010M, MED-Associates) each placed in a sound-attenuated chamber. Each box is divided into two compartments by a partition with an opening. The position of the animal and crossings from one compartment to the other are detected by two photocells placed on either side of the dividing wall. Upon presentation of the conditioned stimuli (CS), tone and light, the animals have 10 s to cross to the other compartment of the shuttle-box in order to turn the CS off (end the trial) and avoid the appearance of the unconditioned stimulus (UCS). If the rat remains in the same compartment for more than 10 s, the UCS is presented as 0.5 mA scrambled foot-shocks until escape is performed or 10 s in maximal duration. The following behavioural variables are evaluated: avoidance (response to CS within 10 s); escape (response to CS+UCS); escape failures (failure to respond); intertrial crosses and locomotor activity. The rats are habituated to the shuttle-box 3 min before each test session. During training each test session consists of 30 trials with intertrial intervals varying randomly between 20 s and 30 s. Training is carried until the rats display an avoidance of 80% or more, on 3 consecutive days. A test is preceded by a pre-test the day before giving rise to a baseline value for each animal, thus the animals serve as their own control. Seven to eight rats are used at each dose level. A parallel control group receiving the vehicle of the test compound is also included.
Administration of compound.
Statistical analyses. The effects of compounds on avoidance and escape failure behaviours were statistically evaluated by means of a two-way repeated measures ANOVA followed by post hoc comparisons (Student-Newman-Keuls Method) when appropriate. P-levels <0.05 were considered statistically significant.

[7] = test system: DA levels in the nucleus accumbens; test: Microdialysis: DA levels in the nucleus accumbens of freely moving rats; type: in vivo, rat; details: 5 mg/kg s.c., freely moving rats
Source text: It is well-known that psychostimulants increase locomotor activity via an increase in extracellular DA levels in the nucleus accumbens, which is the terminal area of the mesolimbic DA projections (Guix et al., 1992, Neurosci. Lett., 138(1), 137-140; Moghaddam et al., 1989, Synapse, 4(2), 156-161). It is also known, that the antagonistic effect of antipsychotics on stimulant-induced hyperlocomotion is related to the effect of antipsychotics to inhibit the stimulated DA levels in the nucleus accumbens (Broderick et al., 2004, Prog. Neuropsychopharmacology and Biol. Psych., 28, 157-171). Thus, the nucleus accumbens is an accepted neuroanatomical site for testing reversal of positive symptoms of psychosis. […] The experiments were conducted such that the data may be associated with the behavioural data obtained above.
Subjects. Male Sprague-Dawley rats (Charles River), initially weighing 275-300 g, were used. The animals were housed under a 12-hr light/dark cycle under controlled conditions for regular in-door temperature (21±2° C.) and humidity (55±5%) with food and tap water available ad libitum.
Surgery. Animals were anaesthetized with hypnorm/dormicum (2 ml/kg s.c.) and intracerebral guide cannulas (CMA/12) were stereotaxically implanted, positioning the dialysis probe tip in the nucleus accumbens (co-ordinates: […] anterior to bregma, —1.2 mm lateral to bregma, 8.0 mm ventral to the dura). Anchor screws and acrylic cement was applied for fixation of the guide cannula. The body temperature of the animals was maintained at 37° C. by means of a rectal probe and a heating plate. The rats were allowed to recover from surgery for 2 days, housed singly in cages.
Experimental procedure. On the day of the experiment, a microdialysis probe (CMA/12, 0.5 mm diameter, 2 mm length) was inserted through the guide cannula of the conscious animal. The probes were connected to a microinjection pump via a dual channel swivel which allowed the animals unrestricted movements. Perfusion of the microdialysis probe with filtered Ringer solution (145 mM NaCl, 3 mM KCl, 1 mM MgCl2, 1.2 mM CaCl2) was maintained for the duration of the experiment at a constant flow rate of 1 μL/min. After 180 min of stabilisation, the experiments were initiated. Dialysates were collected every 20 min. After the experiments the rats were sacrificed by decapitation, their brains removed, frozen and sliced for probe placement verification.
Administration of compounds. […] Thirty min after the first administration dex-amphetamine sulphate (0.5 mg/kg s.c.) was administered.
Analysis of dialysate. The concentration of dopamine (DA) in the dialysates was assessed by means of HPLC with electrochemical detection. The dialysate constitutents were separated by reverse phase liquid chromatography (ODS 150×3 mm, […]). Mobile phase consisted of 90 mM NaH2PO4, 50 mM sodium citrate, 367 mg/l sodium 1-octanesulfonic acid, 50 μM EDTA and 8% acetonitrile (pH 4.0) at a flow rate of 0.5 ml/min. Electrochemical detection of DA was accomplished using a coulometric detector; potential set at E1=−75 mV and E2=300 mV (guard cell at 350 mV) (Coulochem II, ESA). The dialysate levels of DA in the three dialyse samples preceding the administration of compound were averaged and used as baseline level of DA (100%)

[8] = in vivo; details: Wistar, rat, sc
[9] = test system: baseline motility in mice; test: Inhibition of baseline motility in vehicle-pretreated, vehicle-challenged mice; details: vehicle-pretreated, vehicle-challenged mice, compound s.c.
[10] = test system: immobility in the mouse forced swim test; test: Mouse forced swim test; type: in vivo; details: 30 min before the test, mice, last 3 min of 6 min swim, vehicle = 100
[11] = 2.5 mg/kg s.c. 30 min before the test
[12] = 5 mg/kg s.c. 30 min before the test

**Q.** What does the source list for `Cc1cc(N2CCOCC2)cc(C)c1NC(=O)CC1CCCC1`?
**A.** ED50 at 2 h [1]: 5.3 mg/kg; ED50 at 30 min ([2]; subcutaneous): 2.2 mg/kg; ED50 [3]: 2.6 mg/kg; Effect on basal extracellular DA level in the nucleus accumbens [4]: merely provoked levels of DA were affected, but not basal levels of DA; ED50 [5]: 1.2 mg/kg; % inhibition of avoidance. Relative to baseline. [6, 11]: 5%; % inhibition of avoidance. Relative to baseline. [6, 12]: 65%; Escape failures (effect on motor performance) [6]: None of the tested doses caused any incidences of escape failures; DA level in the nucleus accumbens, amphetamine + compound ([7]; time 0 min): 99 ± 4 % of baseline; DA level in the nucleus accumbens, amphetamine + compound ([7]; time −40 min): 95 ± 6 % of baseline

**Q.** What does the source list for `Cc1cc(N2CCOCC2)cc(C)c1NC(=O)CC(C)(C)C`?
**A.** ED50 at 2 h [1]: 7.6 mg/kg; ED50 at 30 min ([2]; subcutaneous): > 2.5 mg/kg; ED50 [3]: 2.1 mg/kg; Effect on basal extracellular DA level in the nucleus accumbens [4]: merely provoked levels of DA were affected, but not basal levels of DA; ED50 [5]: 1.6 mg/kg; % inhibition of avoidance. Relative to baseline. [6, 11]: 1%; % inhibition of avoidance. Relative to baseline. [6, 12]: 71%; Escape failures (effect on motor performance) [6]: None of the tested doses caused any incidences of escape failures; DA level in the nucleus accumbens, amphetamine + compound ([7]; time 0 min): 91 ± 4 % of baseline; DA level in the nucleus accumbens, amphetamine + compound ([7]; time −20 min): 100 ± 3 % of baseline

**Q.** For `COc1cc(N2CCOCC2)cc(C)c1NC(=O)CC1CCCC1` [2-Cyclopentyl-N-(2-methoxy-6-methyl-4-morpholin-4-yl-phenyl)-acetamide], which ED50 at 30 min ([2]; subcutaneous) is on record?
**A.** 3 mg/kg

**Q.** What about the ED50 [5] of the same molecule?
**A.** 1.7 mg/kg

**Q.** With `Cc1nc(N2CCOCC2)nc(C)c1NC(=O)CC1CCCC1` [2-Cyclopentyl-N-(4,6-dimethyl-2-morpholin-4-yl-pyrimidin-5-yl)-acetamide] as the molecule, how does the ED50 at 30 min ([2]; subcutaneous) read?
**A.** 2.5 mg/kg

**Q.** What about the ED50 [5] of the same molecule?
**A.** 0.9 mg/kg

**Q.** Which ED50 at 30 min ([2]; subcutaneous) does the source give for `CCCCCC(=O)Nc1c(F)cc(N2CCOCC2)cc1F` [Hexanoic acid (2,6-difluoro-4-morpholin-4-yl-phenyl)-amide] here?
**A.** > 5 mg/kg

**Q.** What about the ED50 [5] of the same molecule?
**A.** 2.4 mg/kg

**Q.** Which ED50 [3] does the source give for `[Li]` [Lithium-chloride] here?
**A.** 12 mg/kg

**Q.** What about the ED50 at 2 h [8] of the same molecule?
**A.** > 40 mg/kg

**Q.** What does the source list for `Cc1cc(N2CCOCC2)nc(C)c1NC(=O)CC(C)(C)C` [N-(2,4-Dimethyl-6-morpholin-4-yl-pyridin-3-yl)-3,3-dimethyl-butyramide]?
**A.** ED50 at 30 min ([2]; subcutaneous): 3.1 mg/kg; ED50 [5]: 1.4 mg/kg

**Q.** With `CCC(=O)Nc1c(Br)cc(N2CCOCC2)cc1C(F)(F)F` [N-(2-Bromo-4-morpholin-4-yl-6-trifluoromethyl-phenyl)-propionamide] as the molecule, how does the ED50 at 30 min ([2]; subcutaneous) read?
**A.** 6 mg/kg

**Q.** What about the ED50 [5] of the same molecule?
**A.** 3.1 mg/kg

**Q.** For `Cc1nc(N2CCOCC2)nc(C)c1NC(=O)Cc1ccc(F)cc1` [N-(4,6-Dimethyl-2-morpholin-4-yl-pyrimidin-5-yl)-2-(4-fluoro-henyl)-acetamide], which “Inhibition of baseline motility. ED50 (±S.D.)” value [9] is on record?
**A.** 2.2 mg/kg

**Q.** And the “Inhibition of amphetamine sensitised response. ED50 (±S.D.)” value [5]?
**A.** 0.4 mg/kg

**Q.** Which results are given for `Cc1cc2c(s1)Nc1ccccc1N=C2N1CCN(C)CC1` [Olanzapine]?
**A.** ED50 [3]: 0.21 mg/kg; Immobility in % ([10]; dose 0.31 mg/kg): 96%; Immobility in % ([10]; dose 1.3 mg/kg): 95%

**Q.** Which ED50 at 30 min [2] does the source give for `CCOC(=O)Nc1ccc(NCc2c(C)cc(C)cc2C)cc1N` [[2-Amino-4-(2,4,6-trimethyl-benzylamino)-phenyl]-carbamic acid ethyl ester] here?
**A.** 4.3 mg/kg
